Laboratory results reported in patent publication US4761414A, “Substituted 1H-pyrimido[1,2-a-]-pyrido[3,4-e]pyrazine 6 oxides” (G. D. Searle & Co., priority 1986, dated 1988).
Converted amounts (≈) assume the structure as drawn.

What was measured:
[1] = tested on: Campylobacter fetus ss. jejuni NCTC 10842; assay: MIC vs panel of anaerobes; assay type: cell-based; settings: NCTC10842, procedures of Example 40
[2] = tested on: B. fragilis NCTC 9343; assay: MIC/MBC against Bacteroides fragilis strain B; assay type: cell-based; settings: for MBC: NCTC9343, 99.9% reduction in viable count; for MIC: NCTC9343, 48 h, 48 hours, 37° C., anaerobic
Procedure: (§1) The screening panel utilized in this Example consisted of 5 strains of Bacteroides fragilis. All assays were carried out in 96-well microtitre plates. If an isolate was obtained from either a culture collection or clinical source, the isolate was immediately inoculated into Wilkens-Chalgren broth (Oxoid) and incubated at 37° C. in an anaerobic chamber in an atmosphere of 85% nitrogen, 10% carbon dioxide, and 5% hydrogen for 48 hours. At the end of this time, the viable count was about 10^12 organisms/ml broth. A 1 ml aliquot of each culture was placed in an ampoule and quick frozen in acetone-dry ice mixture and stored in liquid nitrogen. When an inoculum was utilized in an assay, one of the ampoules was thawed and diluted with fresh broth to yield a suspension having a count of 5×10^5 organisms/ml. A 100 μl aliquot of this suspension was inoculated into each well of the microtitre plate. A 2 mg sample of the test compound was dissolved in 0.2 ml of a suitable solvent such as dimethylsulfoxide, polyethylene glycol 200 or methanol. […] After addition of the test solution the final inoculum level was 10^5 cells/ml. The plates were incubated for 48 hours at 37° C. in the anaerobic chamber. The Minimum Inhibitory Concentration (MIC) was read visually. The MIC is defined as the lowest concentration at which there is no detectable growth. The Minimum Bactericidal Concentration (MBC) was determined by taking 50 μl aliquot from each well and placing it in fresh medium. […] The strains of Bacteroides fragilis utilized in the above procedure are identified by letter in accordance with the following legend: |B B. fragilis NCTC 9343

[3] = tested on: Costridium difficile NCIB 10666; assay: MIC vs panel of anaerobes; assay type: cell-based, C. difficile; settings: Clostridioides difficile, NCIB10666, C. difficile NCIB 10666; procedures of Example 40; read-out: MIC
[4] = tested on: B. fragilis NCTC 10581; assay: MIC/MBC against Bacteroides fragilis strain A (96-well microtitre plates, anaerobic chamber); assay type: cell-based; settings: Bacteroides fragilis; for MBC: NCTC10581, 99.9% reduction in viable count; for MIC: NCTC10581, 48 h, 48 hours, 37° C., anaerobic
Procedure: as §1, with “|A” for “|B”, “10581” for “9343”

[5] = tested on: B. fragilis WS-1; assay: MIC/MBC against Bacteroides fragilis strain E; assay type: cell-based; settings: for MBC: WS1, 99.9% reduction in viable count; for MIC: WS1, 48 h, 48 hours, 37° C., anaerobic
Procedure: as §1, with “|E” for “|B”, “WS-1*” for “NCTC 9343”

[6] = tested on: Fusobacterium necrophorum ATCC 11295; assay: MIC vs panel of anaerobes; assay type: cell-based; settings: Fusobacterium necrophorum, ATCC11295, Fusobacterium necrophorum ATCC 11295; procedures of Example 40; read-out: MIC

Row | SMILES | MIC [1] | MBC [2] | MIC [2] | MIC [3] | MBC [4] | MIC [4] | MBC [5] | MIC [5] | MIC [6]
1 | CC1(C)CN=C2C(c3ccc(F)cc3)=[N+]([O-])c3cccnc3N2C1 [Example 31, 2,3-Dihydro-2,2-dimethyl-5-(4-fluorophenyl)-1H-pyrimido[1,2-a]pyrido[3,2-e]pyrazine 6-oxide] | 50 µg/mL (≈ 154 µM) | < 0.8 µg/mL | < 0.8 µg/mL | < 0.8 µg/mL | < 0.8 µg/mL | < 0.8 µg/mL | < 0.8 µg/mL | < 0.8 µg/mL | 3.1 µg/mL (≈ 9.56 µM)
2 | CCC1(C)CN=C2C(c3ccccc3)=[N+]([O-])c3cccnc3N2C1 (stereo not drawn) [Example 24, 2,3-Dihydro-2-ethyl-2-methyl-5-phenyl-1H-pyrimido[1,2-a]pyrido[3,2-e]pyrazine 6-oxide] | 100 µg/mL (≈ 312 µM) | < 0.8 µg/mL | < 0.8 µg/mL | < 0.8 µg/mL | < 0.8 µg/mL | < 0.8 µg/mL | < 0.8 µg/mL | < 0.8 µg/mL | < 0.8 µg/mL
3 | CC1(C)CN=C2C(c3ccccc3)=[N+]([O-])c3ccncc3N2C1 [Example 14, 2,3-Dihydro-2,2-dimethyl-5-phenyl-1H-pyrimido[1,2-a]pyrido[4,3-e]pyrazine 6-oxide] | 50 µg/mL (≈ 163 µM) | 6.2 µg/mL (≈ 20.2 µM) | 3.1 µg/mL (≈ 10.1 µM) | 1.5 µg/mL (≈ 4.9 µM) | 12.5 µg/mL (≈ 40.8 µM) | 6.2 µg/mL (≈ 20.2 µM) | 3.1 µg/mL (≈ 10.1 µM) | 3.1 µg/mL (≈ 10.1 µM) | 25 µg/mL (≈ 81.6 µM)
4 | COc1ccc(C2=[N+]([O-])c3cccnc3N3CC(C)(C)CN=C23)cc1OC [Example 22, 2,3-Dihydro-5-(3,4-dimethoxyphenyl)-2,2-dimethyl-1H-pyrimido[1,2-a]pyrido[3,2-e]pyrazine 6-oxide] | 50 µg/mL (≈ 136 µM) | < 0.8 µg/mL | < 0.8 µg/mL | < 0.8 µg/mL | 1.5 µg/mL (≈ 4.09 µM) | 1.5 µg/mL (≈ 4.09 µM) | < 0.8 µg/mL | < 0.8 µg/mL | < 0.8 µg/mL
5 | CCC1(C)CN=C2C(c3ccccc3)=[N+]([O-])c3cnccc3N2C1 (stereo not drawn) [Example 23, 2,3-Dihydro-2-ethyl-2-methyl-5-phenyl-1H-pyrimido[1,2-a]pyrido[3,4-e]pyrazine 6-oxide] | 100 µg/mL (≈ 312 µM) | < 0.8 µg/mL | < 0.8 µg/mL | 1.5 µg/mL (≈ 4.68 µM) | 1.5 µg/mL (≈ 4.68 µM) | 1.5 µg/mL (≈ 4.68 µM) | 3.1 µg/mL (≈ 9.68 µM) | 1.5 µg/mL (≈ 4.68 µM) | < 0.8 µg/mL
6 | CC1(C)CN=C2C(c3ccc(Cl)cc3)=[N+]([O-])c3cnccc3N2C1 [Example 17, 2,3-Dihydro-5-(4-chlorophenyl)-2,2-dimethyl-1H-pyrimido[1,2-a]pyrido[3,4-e]pyrazine 6-oxide] | 50 µg/mL (≈ 147 µM) | 1.5 µg/mL (≈ 4.4 µM) | 1.5 µg/mL (≈ 4.4 µM) | < 0.8 µg/mL | < 0.8 µg/mL | < 0.8 µg/mL | < 0.8 µg/mL | < 0.8 µg/mL | 3.1 µg/mL (≈ 9.1 µM)
